The target of this assay is T1, human IL-17AA (Homo sapiens, UniProt Q16552).
T1 construct: host or cells: HEK (human embryonic kidney) cells
T1 sequence (Q16552 24-155) 1: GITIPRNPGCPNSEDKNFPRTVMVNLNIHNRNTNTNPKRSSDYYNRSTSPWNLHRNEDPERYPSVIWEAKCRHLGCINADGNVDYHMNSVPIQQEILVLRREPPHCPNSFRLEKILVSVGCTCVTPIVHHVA
T1 sequence (Q16552 24-155) 2: T1 sequence (Q16552 24-155) 1
Nature of the assay: IL-8 release assay in human epithelial keratinocytes adult (HEKa). Format: cell-based. To be noted: 3 ng/ml human IL-17AA + 10 ng/ml human TNFalpha, 68-72 h, IL-8 by HTRF, read-out: Rel EC50 L-8 release assay. A digest of the protocol:
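IL-8 secretion, quantified by HTRF (665/620 nm) as percent of controls, served as the readout after 68–72 h culture of HEKa cells with compound plus IL-17AA (3 ng/ml final) and TNF-alpha (10 ng/ml final). Four-parameter logistic curves gave relative IC50 and Emax.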

pEC50: −log10 of the molar value. Where only a bound is given, the exact number is not on record here.

For the compound `Cc1cnn(C)c1-c1ccc(NC(=O)[C@@H](NC(=O)c2ccnn2C)[C@@H]2CCc3ccc(-c4ccnc(C(C)C)n4)cc32)cc1` [Example 382, N-[(1S)-2-[4-(2,4-dimethylpyrazol-3-yl)anilino]-1-[(1R)-6-(2-isopropylpyrimidin-4-yl)indan-1-yl]-2-oxo-ethyl]-2-methyl-pyrazole-3-carboxamide], the pEC50 was 6.00 to 7.00.

As to `Cc1n[nH]c(C)c1-c1ccc(NC(=O)[C@H](Cc2cc(-c3cnn(C)c3C)ccc2Cl)NC(=O)C2(F)CC2)cc1` [Example 227, N-[(1S)-1-[[2-chloro-5-(1,5-dimethylpyrazol-4-yl)phenyl]methyl]-2-[4-(3,5-dimethyl-1H-pyrazol-4-yl)anilino]-2-oxo-ethyl]-1-fluoro-cyclopropanecarboxamide], the pEC50 was 6.00 to 7.00.

As to `COCCOCCn1cc(-c2cccc(-c3ccc(Cl)c(CC(NC(=O)c4ccnn4C)C(=O)Nc4ccc(-c5c(C)n[nH]c5C)cc4)c3)c2)nn1` (stereo not shown) [Example 312, N-[1-[[2-chloro-5-[3-[1-[2-(2-methoxyethoxy)ethyl]triazol-4-yl]phenyl]phenyl]methyl]-2-[4-(3,5-dimethyl-1H-pyrazol-4-yl)anilino]-2-oxo-ethyl]-2-methyl-pyrazole-3-carboxamide], the pEC50 is 6.00 to 7.00.

On to `Cn1cncc1-c1ccc(NC(=O)C(Cc2cc(-c3ccnc(N4CC[C@@H](O)C4)c3)ccc2Cl)NC(=O)c2ccnn2C)cc1` (stereo partly drawn) [Example 192, N-[1-[[2-chloro-5-[2-[(3R)-3-hydroxypyrrolidin-1-yl]-4-pyridyl]phenyl]methyl]-2-[4-(3-methylimidazol-4-yl)anilino]-2-oxo-ethyl]-2-methyl-pyrazole-3-carboxamide], for which the pEC50 is 6.00 to 7.00.

With `Cc1n[nH]cc1-c1ccc(NC(=O)[C@H](Cc2cc(-c3ccc(=O)n(C(C)C)c3)ccc2Cl)NC(=O)C2(F)CC2)cc1` [Example 136, N-[(1S)-1-[[2-chloro-5-(1-isopropyl-6-oxo-3-pyridyl)phenyl]methyl]-2-[4-(3-methyl-1H-pyrazol-4-yl)anilino]-2-oxo-ethyl]-1-fluoro-cyclopropanecarboxamide], the pEC50 was 6.00 to 7.00.

Take `Cc1ncn(C)c1-c1ccc(NC(=O)[C@@H](NC(=O)C2(F)CC2)[C@@H]2CCCc3ccc(-c4ccnc(N5C[C@@H]6C[C@H]5CN6)c4)cc32)cc1` [Example 40, N-[(1S)-1-[(1R)-7-[2-[(1S,4S)-2,5-diazabicyclo[2.2.1]heptan-2-yl]-4-pyridyl]tetralin-1-yl]-2-[4-(3,5-dimethylimidazol-4-yl)anilino]-2-oxo-ethyl]-1-fluoro-cyclopropanecarboxamide]: the pEC50 was over 7.00.

With `CNC1CN(c2cc(-c3ccc(Cl)c(CC(NC(=O)c4ccnn4C)C(=O)Nc4ccc(-c5cncn5C)cc4)c3)ccn2)C1` (stereo not shown) [Example 196, N-[1-[[2-chloro-5-[2-[3-(methylamino)azetidin-1-yl]-4-pyridyl]phenyl]methyl]-2-[4-(3-methylimidazol-4-yl)anilino]-2-oxo-ethyl]-2-methyl-pyrazole-3-carboxamide], the pEC50 is 6.00 to 7.00.

For the compound `Cc1n[nH]c(C)c1-c1ccc(NC(=O)[C@@H](NC(=O)C2(F)CC2)[C@@H]2CCc3ccc(-c4cnn(C(C)(C)CN)c4)cc32)cc1` [Example 24, N-[(1S)-1-[(1R)-6-[1-(2-amino-1,1-dimethyl-ethyl)pyrazol-4-yl]indan-1-yl]-2-[4-(3,5-dimethyl-1H-pyrazol-4-yl)anilino]-2-oxo-ethyl]-1-fluoro-cyclopropanecarboxamide], the pEC50 is 6.00 to 7.00.

In the case of `CC(C)n1cc(-c2ccc(Cl)c(CC(NC(=O)c3ccnn3C)C(=O)Nc3ccc(-c4cnn[nH]4)cc3)c2)ccc1=O` (stereo not shown) [Example 83, N-[1-[[2-chloro-5-(1-isopropyl-6-oxo-3-pyridyl)phenyl]methyl]-2-oxo-2-[4-(1H-triazol-5-yl)anilino]ethyl]-2-methyl-pyrazole-3-carboxamide], the pEC50 is 6.00 to 7.00.

Turning to `Cc1nocc1C(=O)N[C@@H](Cc1cc(-c2ccnc(C(O)C3CC3)c2)ccc1Cl)C(=O)Nc1ccc(-n2ccnc2C)cc1` (stereo partly drawn) [Example 125, N-[(1S)-1-[[2-chloro-5-[2-[cyclopropyl(hydroxy)methyl]-4-pyridyl]phenyl]methyl]-2-[4-(2-methylimidazol-1-yl)anilino]-2-oxo-ethyl]-3-methyl-isoxazole-4-carboxamide], the pEC50 was 6.00 to 7.00.

Turning to `CC(C)n1cc(-c2ccc(Cl)c(CC(NC(=O)C3(F)CC3)C(=O)Nc3ccc(-c4nncn4C)cc3)c2)cc(C(F)(F)F)c1=O` (stereo not shown) [Example 307, N-[1-[[2-chloro-5-[1-isopropyl-6-oxo-5-(trifluoromethyl)-3-pyridyl]phenyl]methyl]-2-[4-(4-methyl-1,2,4-triazol-3-yl)anilino]-2-oxo-ethyl]-1-fluoro-cyclopropanecarboxamide], the pEC50 was under 6.00.

For the compound `Cc1cnn(C)c1-c1ccc(NC(=O)[C@@H](NC(=O)c2ccnn2C)[C@@H]2CCc3ccc(-c4cc(N5C[C@@H]6C[C@H]5CO6)ncn4)cc32)cc1` [Example 386, N-[(1S)-2-[4-(2,4-dimethylpyrazol-3-yl)anilino]-1-[(1R)-6-[6-[(1S,4S)-2-oxa-5-azabicyclo[2.2.1]heptan-5-yl]pyrimidin-4-yl]indan-1-yl]-2-oxo-ethyl]-2-methyl-pyrazole-3-carboxamide], the pEC50 is 6.00 to 7.00.

Take `CC(C)n1cc(-c2ccc(Cl)c(CC(NC(=O)c3ccnn3C)C(=O)Nc3ccc(-c4cncn4C)cc3)c2)ccc1=O` (stereo not shown) [Example 79, N-[1-[[2-chloro-5-(1-isopropyl-6-oxo-3-pyridyl)phenyl]methyl]-2-[4-(3-methylimidazol-4-yl)anilino]-2-oxo-ethyl]-2-methyl-pyrazole-3-carboxamide]: the pEC50 is 6.00 to 7.00.

Take `Cc1[nH]ncc1-c1ccc(NC(=O)C(Cc2cc(-c3ccc(=O)n(C(C)C)c3)ccc2Cl)NC(=O)C2(F)CC2)cc1` (stereo not shown) [Example 129, N-[1-[[2-chloro-5-(1-isopropyl-6-oxo-3-pyridyl)phenyl]methyl]-2-[4-(5-methyl-1H-pyrazol-4-yl)anilino]-2-oxo-ethyl]-1-fluoro-cyclopropanecarboxamide]: the pEC50 is 6.00 to 7.00.

Regarding `Cc1cnn(C)c1-c1ccc(NC(=O)[C@H](Cc2cc(-c3ccc(=O)n(C(C)C)c3)ccc2Cl)NC(=O)C(C)C)cc1` [Example 328, N-[(1S)-1-[[2-chloro-5-(1-isopropyl-6-oxo-3-pyridyl)phenyl]methyl]-2-[4-(2,4-dimethylpyrazol-3-yl)anilino]-2-oxo-ethyl]-2-methyl-propanamide], the pEC50 is under 6.00.

In the case of `Cc1n[nH]c(C)c1-c1ccc(NC(=O)[C@@H](NC(=O)C2(F)CC2)[C@@H]2CCCc3ccc(-c4cc(N5C[C@@H]6C[C@H]5CO6)ncn4)cc32)cc1` [Example 397, N-[(1S)-2-[4-(3,5-dimethyl-1H-pyrazol-4-yl)anilino]-1-[(1R)-7-[6-[(1S,4S)-2-oxa-5-azabicyclo[2.2.1]heptan-5-yl]pyrimidin-4-yl]tetralin-1-yl]-2-oxo-ethyl]-1-fluoro-cyclopropanecarboxamide], the pEC50 is over 7.00.

On to `Cc1n[nH]c(C)c1-c1ccc(NC(=O)[C@@H](NC(=O)c2ccnn2C)[C@@H]2CCCc3ccc(-c4ccc(=O)n(C(C)C)c4)cc32)cc1O` [Example 46, N-[(1S)-2-[4-(3,5-dimethyl-1H-pyrazol-4-yl)-3-hydroxy-anilino]-1-[(1R)-7-(1-isopropyl-6-oxo-3-pyridyl)tetralin-1-yl]-2-oxo-ethyl]-2-methyl-pyrazole-3-carboxamide], for which the pEC50 is over 7.00.

Regarding `Cc1ncn(C)c1-c1ccc(NC(=O)[C@@H](NC(=O)OC2CC2)[C@@H]2CCCc3ccc(-c4ccnc(N5CCN(C)CC5)c4)cc32)cc1` [Example 32, cyclopropyl N-[(1S)-2-[4-(3,5-dimethylimidazol-4-yl)anilino]-1-[(1R)-7-[2-(4-methylpiperazin-1-yl)-4-pyridyl]tetralin-1-yl]-2-oxo-ethyl]carbamate], the pEC50 was 6.00 to 7.00.

Turning to `CC(C)n1cc(-c2cccc(C(c3ccccc3)C(NC(=O)c3ccnn3C)C(=O)Nc3ccc(-c4cncn4C)cc3)c2)ccc1=O` (single isomer, unassigned; diastereomer 3) [Example 233, N-[1-[[3-(1-isopropyl-6-oxo 3-pyridyl)phenyl]-phenyl-methyl]-2-[4-(3-methylimidazol-4-yl)anilino] 2-oxo-ethyl]-2-methyl-pyrazole-3-carboxamide (Diastereomer 3)], the negative logarithm of the EC50 (pEC50) is under 6.00.

Take `COCCOCCn1cc(-c2ccc(-c3ccc(Cl)c(CC(NC(=O)c4ccnn4C)C(=O)Nc4ccc(-c5c(C)n[nH]c5C)cc4)c3)cc2)nn1` (stereo not shown) [Example 313, N-[1-[[2-chloro-5-[4-[1-[2-(2-methoxyethoxy)ethyl]triazol-4-yl]phenyl]phenyl]methyl]-2-[4-(3,5-dimethyl-1H-pyrazol-4-yl)anilino]-2-oxo-ethyl]-2-methyl-pyrazole-3-carboxamide]: the negative logarithm of the EC50 (pEC50) is over 7.00.

Take `CC(C)n1cc(-c2ccc(Cl)c(C[C@H](NC(=O)[C@H]3CC3(F)F)C(=O)Nc3ccc(-c4nncn4C)cc3)c2)ccc1=O` [Example 288, (1R)-N-[(1S)-1-[[2-chloro-5-(1-isopropyl-6-oxo-3-pyridyl)phenyl]methyl]-2-[4-(4-methyl-1,2,4-triazol-3-yl)anilino]-2-oxo-ethyl]-2,2-difluoro-cyclopropanecarboxamide]: the pEC50 is under 6.00.

Consider `Cn1cncc1-c1ccc(NC(=O)C(Cc2cc(-c3cccc(C(C)(C)O)c3)ccc2Cl)NC(=O)c2ccnn2C)cc1` (stereo not shown) [Example 179, N-[1-[[2-chloro-5-[3-(1-hydroxy-1-methyl-ethyl)phenyl]phenyl]methyl]-2-[4-(3-methylimidazol-4-yl)anilino]-2-oxo-ethyl]-2-methyl-pyrazole-3-carboxamide], for which the pEC50 was over 7.00.

The values are drawn from patent US20220162191A1, “SMALL MOLECULE MODULATORS OF IL-17” (LEO PHARMA A/S, priority 2019, published 2022).
